According to patent publication US8445636B2, “Antimicrobial and anticancer lipopeptides” (Yeda Research & Development Co. Ltd., priority 2003, dated 2013):
In brackets after ≈: the same amount, converted by molar mass. Non-standard residues stand in square brackets, D forms with d. Residues, ends and D or L forms follow the SMILES beside them. *: point of attachment. Palmitoyl = CCCCCCCCCCCCCCCC(=O)*

Assays:
Format in all cases: cell-based
[1] = test system: Acinetobacter baumannii ATCC 19606; conditions: ATCC 19606, pH 7.4
How it was run: (§1)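 MIC = lowest concentration with 100% growth inhibition, judged from A600 after 18-20 h incubation at 37° C. Bacteria at 1×10^6 CFU/ml in LB (pH 7.4 unless pH 5.5 stated) combined with equal volume of serially 2-fold diluted lipopeptide.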

[2] = test system: Escherichia coli ATCC 25922; conditions: ATCC 25922, pH 7.4
How it was run: as §1

[3] = test system: Pseudomonas aeruginosa ATCC 27853; conditions: ATCC 27853, pH 7.4
How it was run: as §1

[4] = test system: Staphylococcus aureus ATCC 6538P; conditions: ATCC 6538, pH 7.4
How it was run: as §1

B. subtilis ATCC 6051 = conditions: ATCC 6051, pH 7.4
[5] = test system: Candida albicans ATCC 10231; assay: microbe, parasite or virus in culture; conditions: ATCC 10231, pH 7.4; read-out: Minimal Inhibitory Concentration, Candida Albicans (ATCC 10231)
How it was run: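 In this assay, each strain, prepared at 1×10^4 CFU/ml before mixing, met serial twofold peptide dilutions in RPMI 1640 buffered with 0.165 M MOPS. Unless noted, pH was 7.4; a pH 5.5 condition was also run. After 24-48 h incubation (35 °C, agitated), wells were scored at 620 nm for total inhibition.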

[6] = test system: Cryptococcus neoformans ATCC MYA-422; assay: microbe, parasite or virus in culture; conditions: ATCC MYA-422, pH 7.4
[7] = test system: Aspergillus fumigatus ATCC 26430; assay: microbe, parasite or virus in culture; conditions: ATCC 26430, pH 7.4
[8] = test system: Aspergillus flavus ATCC 9643; conditions: ATCC 9643, pH 7.4
[9] = test system: Aspergillus niger ATCC 9642; conditions: ATCC 9642, pH 7.4
Method: The antifungal activity of the lipopeptides was examined in sterile 96-well plates (Nunc F96 microtiter plates) in a final volume of 200 μL as follows: 100 µl of a suspension containing fungi at a concentration of 1×10^4 Colony-Forming Units (CFU)/ml in culture medium (RPMI 1640, 0.165 M MOPS with L-glutamine, without NaHCO3) at pH 7.4 or pH 5.5 (adjustment of the pH was done by diluted solutions of HCl and NaOH) were added to 100 μl of water containing the peptide in serial 2-fold dilutions in water. The fungi were incubated in the presence of the lipopeptides for 24-48 h at 35° C. in a Binder KB115 incubator under agitation. Growth inhibition was determined by measuring the absorbance at 620 nm with a Microplate autoreader E1309 (Bio-Tek Instruments). Antifungal activity is expressed as the minimal inhibitory concentration (MIC), the concentration at which 100% inhibition of fungi growth was observed after the incubation time mentioned above. The fungi used were: Aspergillus niger ATCC 9642, Candida albicans ATCC 10231 and Cryptococcus neoformans ATCC 66031. If not indicated otherwise, the fungi growth was detected at pH 7.4.

CCCCCCCCCCCCCCCC(=O)N[C@@H](CCCCN)C(=O)N[C@H](C(=O)N[C@@H](C(=O)N[C@@H](C(=O)N[C@@H](CCCCN)C(=O)N[C@H](C(=O)N[C@H](C(=O)N[C@@H](C(=O)N[C@@H](CCCCN)C(=O)N[C@@H](C(=O)N[C@H](C(=O)N[C@@H](CCCCN)C(N)=O)C(C)C)C(C)C)C(C)C)C(C)C)C(C)C)C(C)C)C(C)C)C(C)C [lipopeptide 7, (CH3—(CH2)14—CO—)-Lys-Val-D-Val-D-Val-Lys-Val-Val-D-Val-Lys-D-Val-Val-Lys-NH2] (Palmitoyl-KV[dV][dV]KVV[dV]K[dV]VK-NH2)
Minimal Inhibitory Concentration, A. baumannii ATCC 19606 [1]: >100 µM | Minimal Inhibitory Concentration, E. coli (ATCC 25922) [2]: >100 µM | Minimal Inhibitory Concentration, P. aeruginosa ATCC 27853 [3]: >100 µM | Minimal Inhibitory Concentration, S. aureus ATCC 6538P [4]: >100 µM | Minimal Inhibitory Concentration, B. subtilis (ATCC 6051) (B. subtilis ATCC 6051): >100 µM | MIC [5]: 3.125 µM (≈ 4.88 µg/mL) | Minimal Inhibitory Concentration, Cryptococcus neoformans (ATCC MYA-422) [6]: 3.125 µM | Minimal Inhibitory Concentration, Aspergillus fumigatus (ATCC 26430) [7]: >100 µM | Minimal Inhibitory Concentration, Aspergillus flavus (ATCC 9643) [8]: >100 µM | Minimal Inhibitory Concentration, Aspergillus niger (ATCC 9642) [9]: >100 µM
